Data reported in ChEMBL document CHEMBL4706758, “Novel Substituted Pyridazines as Splicing Modulators for Modulating Splicing of mRNA and Uses Thereof for Treating Diseases” (ACS Med Chem Lett, 2021).
pEC50, pIC50: −log10 of the molar value.

Legend:
SMN2 pre-mRNA [1] = experiment: Modulation of SMN2 mRNA FL splicing in spinal muscular atrophy patient fibroblasts; format: tissue-based, Homo sapiens; conditions: fibroblast
[2] = Modulation of HTT mRNA exon 49b splicing in human GM04724 cells; format: cell-based
SMN2 pre-mRNA [3] = experiment: Modulation of SMN2 mRNA FL splicing in spinal muscular atrophy patient fibroblasts assessed as SMN2 protein potency; format: tissue-based, Homo sapiens; conditions: fibroblast
[4] = Modulation of HTT mRNA splicing in human GM04724 cells assessed as mHTT protein potency; format: cell-based
[5] = Modulation of HTT mRNA exon 49-50 splicing in human GM04724 cells; format: cell-based
SMN2 pre-mRNA [6] = experiment: Modulation of SMN2 mRNA D7 splicing in spinal muscular atrophy patient fibroblasts; format: tissue-based, Homo sapiens; conditions: fibroblast

| SMILES | pEC50 (SMN2 pre-mRNA [1]) | pEC50 [2] | pEC50 (SMN2 pre-mRNA [3]) | pEC50 [4] | pEC50 [5] | pIC50 (SMN2 pre-mRNA [6]) |
| --- | --- | --- | --- | --- | --- | --- |
| CN(c1ccc(-c2ccc(-c3cnn(C)c3)cc2O)nn1)[C@H]1C[C@@H]2CC[C@@](C)(N2)[C@H]1F | 11.00 | 11.00 | 11.00 | 11.00 | 11.00 | 11.00 |
| C[C@@]12CC[C@@H](C[C@H](Oc3ccc(-c4ccc(-n5ccnc5)cc4O)nn3)C1)N2 | 7.80 | 11.00 | 11.00 | 11.00 | 11.00 | 7.80 |
| COC[C@@]12CC[C@@H](C[C@H](N(C)c3ccc(-c4cc(F)c(-n5ccnc5)cc4O)nn3)C1)N2 | 11.00 | 11.00 | 11.00 | 11.00 | 11.00 | 11.00 |
| COC[C@]12CC[C@H](C[C@@H](N(C)c3ccc(-c4cc(F)c(-n5ccnc5)cc4O)nn3)C1)N2 | 11.00 | 11.00 | 11.00 | 11.00 | 11.00 | 11.00 |
| C[C@@]12CC[C@@H](C[C@H](Oc3ccc(-c4ccc(-c5cn[nH]c5)cc4O)nn3)C1)N2 | 11.00 | 11.00 | 11.00 | 11.00 | 11.00 | 11.00 |
| C[C@]12CC[C@H](C[C@@H](Oc3ccc(-c4ccc(-c5cn[nH]c5)cc4O)nn3)C1)N2 | 7.80 | 11.00 | 11.00 | 11.00 | 11.00 | 11.00 |
